In this experiment the target is T1, DDR1 (Homo sapiens, UniProt Q08345).
T1 construct: purchased Thermo Fisher Scientific (Life Technologies) SelectScreen
As to the kind of experiment: SelectScreen LanthaScreen. The conditions noted are these: read-out: % displacement. It is filed as binding. Put shortly: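 SelectScreen broad panel; activity (Z'LYTE, Adapta) plus binding formats. ATP: Km app for CSF1R Z'LYTE; 10 for CAMK1 Adapta. Readout = % per kinase.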
In general terms: Time-resolved FRET reads energy transfer from a long-lived donor to a nearby acceptor.

T1 sequence (Q08345 19-913): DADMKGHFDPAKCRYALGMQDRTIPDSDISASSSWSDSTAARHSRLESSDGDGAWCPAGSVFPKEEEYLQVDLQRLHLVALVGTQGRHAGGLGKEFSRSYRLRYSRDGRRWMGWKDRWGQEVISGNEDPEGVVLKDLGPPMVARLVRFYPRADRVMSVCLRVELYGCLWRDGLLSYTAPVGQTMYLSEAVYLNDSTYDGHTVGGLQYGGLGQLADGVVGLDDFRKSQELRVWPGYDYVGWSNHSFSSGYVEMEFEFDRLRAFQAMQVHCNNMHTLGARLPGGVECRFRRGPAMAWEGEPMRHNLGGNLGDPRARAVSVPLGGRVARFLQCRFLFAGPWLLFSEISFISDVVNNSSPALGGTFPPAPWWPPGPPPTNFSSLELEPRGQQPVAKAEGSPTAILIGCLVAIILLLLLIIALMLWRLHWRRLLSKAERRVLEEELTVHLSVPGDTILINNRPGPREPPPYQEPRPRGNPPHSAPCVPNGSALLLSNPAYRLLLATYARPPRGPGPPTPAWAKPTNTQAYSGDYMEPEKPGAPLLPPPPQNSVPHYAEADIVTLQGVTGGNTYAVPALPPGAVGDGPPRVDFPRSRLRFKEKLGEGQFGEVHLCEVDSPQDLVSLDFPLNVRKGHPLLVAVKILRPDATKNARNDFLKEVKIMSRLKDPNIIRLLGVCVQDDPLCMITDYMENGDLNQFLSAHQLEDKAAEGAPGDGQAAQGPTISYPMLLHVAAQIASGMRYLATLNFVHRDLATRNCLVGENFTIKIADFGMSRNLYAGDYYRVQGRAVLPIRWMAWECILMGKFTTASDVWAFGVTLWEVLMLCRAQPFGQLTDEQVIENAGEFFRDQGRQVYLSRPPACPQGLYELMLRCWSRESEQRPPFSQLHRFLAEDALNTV

For the compound `CN(C(=O)CN1CCOCC1)c1ccc2sc3c(-c4cccc5c(=O)cc(N6CC7CCC(C6)O7)oc45)cccc3c2c1` [NU5455], the inhibition at 1 µM is -1.8%.

For the origin of these results see paper PMC6934184, “Selective DNA-PKcs inhibition extends the therapeutic index of localized radiotherapy and chemotherapy” (The Journal of Clinical Investigation, 2019).
